Results from patent US20150080580A1, “THIOUREA DERIVATIVES AS a-CHYMOTRYPSIN INHIBITORS” (priority 2013, published 2015).

Assays:
α-Chymotrypsin [1] = target: T1, α-Chymotrypsin (Bos taurus, UniProt P00766); assay: α-Chymotrypsin inhibition assay (SPpNA substrate, absorbance at 410 nm); format: biochemical, bovine; conditions: for IC50: α-chymotrypsin, substrate SPpNA 0.4 mM, pH 7.6, 30° C., n = 3
T1 construct: purchased Sigma-Aldrich (USA) C4129; host or cells: bovine pancreas
Procedure: (§1) α-Chymotrypsin (bovine pancreas, C4129) and N-succinyl-L-phenylalanine-p-nitroaniline (S2628) were purchased from Sigma-Aldrich (USA). Chymostatin (152845) from MP Biomedicals, LLC, USA, Tris(hydroxymethyl)aminomethane from Scharlau Chemie Barcelona, Spain and all other reagents were obtained from E. Merck and were of analytical grade. All other solvents and reagents were of analytical grade and used directly without purification.
This was performed in 50 mM Tris-HCl buffer pH 7.6 with 10 mM CaCl2. α-Chymotrypsin (12 units/mL prepared in 50 mM Tris-HCl buffer) with the different concentration of test compounds prepared in DMSO. It was then incubated at 30° C. for 25 min. The reaction was started by the addition of the substrate, N-succinyl-L-phenylalanine-p-nitroanilide (final concentration of 0.4 mM, prepared in the buffer as mentioned above). The change in absorbance due to released p-nitroaniline was continuously monitored at 410 nm (Choudhary et al., 2011). All the experiments were in a final volume of 200 μL in triplicate, and data was taken using a micro-plate reader (SpectraMax M2, Molecular Devices, Calif., USA).
The results were processed by using SoftMax Pro 4.8 then analyzed by MS Excel software. The % of inhibition based upon initial velocity and calculated as: […]
IC50 (Inhibition of enzymatic hydrolysis of the substrate SPpNA by 50%) value was calculated using EZ-Fit software (Perellela Scientific, Inc., Amherst, Mars, USA).

α-Chymotrypsin [2] = target: T1, α-Chymotrypsin; assay: α-Chymotrypsin inhibition kinetic study (Lineweaver-Burk, Dixon, Hanes-Woolf plots); format: biochemical, bovine; conditions: for Type of inhibition: from Lineweaver-Burk, Dixon and Hanes-Woolf plots; for Ki: substrate SPpNA 0.4-3.2 mM, n = 3, read-out: Ki ± SEM
Text: as §1
The change in concentration of the substrate/product (rate of reaction) was measured as optical density per minute (OD/min). This OD/min was obtained by incorporating different concentrations of compounds over substrate (SPpNA) concentrations between 0.4 mM and 3.2 mM in micro-plate reader. Reciprocal of OD/min against the reciprocal of the substrate concentration, defined as Lineweaver-Burk plot (and its secondary plot; slope vs compound concentration); the Dixon plot (and its secondary plot; slope vs reciprocal of compound concentration) and then Hanes-Woolf plot were plotted (Lineweaver et al., 1934; Dixon, 1953; Segel, 1993) Graphs were plotted using GraFit 4 (Erithacus Software Limited, Surrey, UK) and GraphPad Prism 5 (GraphPad Software, California, USA). The types of inhibition were determined by the graphical views of Dixon plots, Lineweaver-Burk plots and their secondary plots as well as Hanes-Woolf plot. The Ki values, obtained directly from the software, also were cross-checked and tallied in these graphs. Final concentration of DMSO was maintained 5.5%.

[3] = Cell proliferation inhibition (cytotoxicity) MTT assay for 3T3 cell line; format: cell-based, Mouse; conditions: 3T3 mouse fibroblast cells; 3T3 mouse fibroblasts, MTT, 72 hrs, n = 3; read-out: 3T3 cell-line GI50 ± SEM
Procedure: (§2) It was evaluated by using the MTT (3-[4,5-dimethylthiazole-2-yl]-2,5-diphenyl-tetrazolium bromide) assay (Mosmann, 1983). The 3T3 cell-lines (Mouse Fibroblasts) were cultured in Dulbecco's Modified Eagle's Medium, which was later supplemented with 5% of bovine serum, 100 IU/mL of penicillin, and 100 μg/mL of streptomycin, in 5% CO2 incubator at 37° C. Exponentially growing cell, 1×10^4 cells/well incorporated into each well of 96-well plates. Then, fresh the medium containing different concentrations of compounds were loaded in each well after 24 hours. Again, after 72 hrs, fresh the medium containing 0.5 mg/mL MTT were loaded in each well, and incubated further for 4 hrs. Subsequently, the media containing MTT was replaced by 100 μL of DMSO for 15 min, and then the absorbance was taken at 570 nm.

3T3 cell line = assay: as above; format: cell-based, Mouse
Procedure: as §2

SMILES | IC50 (α-Chymotrypsin [1]) [µM] | Type of inhibition (α-Chymotrypsin [2]) | Ki (α-Chymotrypsin [2]) [µM] | GI50 at 72 h [3] [µM] | growth inhibition for 3T3 cell lines (in words) (3T3 cell line) | α-chymotrypsin inhibition (in words) (α-Chymotrypsin [1])
Cc1cccnc1NC(=S)Nc1cccc(Cl)c1 [Compound 25, 1-(3-Chlorophenyl)-3-(3-methylpyridin-2-yl)thiourea] | > 500 | – | – | – | – | –
COc1cccc(NC(=S)Nc2cccc(Cl)c2)c1 [Compound 4, 1-(3-Chlorophenyl)-3-(3-methoxyphenyl) thiourea] | 25.4 ± 0.2 | Mixed | 21.2 ± 1.5 | > 30 | – | –
S=C(Nc1cccc(Cl)c1)Nc1ccc(Cl)cc1Cl [Compound 8, 1-(3-Chlorophenyl)-3-(2,4-dichlorophenyl) thiourea] | 42.4 ± 0.3 | Mixed | 31.8 ± 3.4 | 21.4 ± 0.1 | showed growth inhibition | –
S=C(Nc1cccc(Cl)c1)Nc1c(Cl)cccc1Cl [Compound 16, 1-(3-Chlorophenyl)-3-(2,6-dichlorophenyl) thiourea] | 247.3 ± 1.7 | Competitive | 210 ± 11.8 | > 30 | – | –
Fc1ccc(NC(=S)Nc2ccccc2)c(F)c1 [Compound 22, 1-(2,4-Difluorophenyl)-3-phenylthiourea] | 193 ± 1 | Competitive | 142 ± 5 | > 30 | – | –
Cc1ccccc1NC(=S)Nc1cccc(Cl)c1 [Compound 17, 1-(3-Chlorophenyl)-3-o-tolylthiourea] | 387 ± 13.1 | Competitive | 329 ± 11.6 | > 30 | – | –
S=C(Nc1ccccc1)Nc1cccnc1 [Compound 29, 1-Phenyl-3-(pyridin-3-yl) thiourea] | > 500 | – | – | – | – | inactive
S=C(Nc1ccc(Cl)cc1)Nc1cccc(Cl)c1 [Compound 1, 1-(3-Chlorophenyl)-3-(4-chlorophenyl) thiourea] | 11.6 | mixed-type | 8.6 ± 0.8 | > 30 | – | –
Cc1ccc(NC(=S)Nc2cccc(Cl)c2)c(C)c1 [Compound 15, 1-(3-Chlorophenyl)-3-(2,4-dimethylphenyl) thiourea] | 192 ± 9.2 | Non- Competitive | 173 ± 7.9 | > 30 | – | –
COc1ccc(NC(=S)Nc2cccc(Cl)c2)cc1 [Compound 6, 1-(3-Chlorophenyl)-3-(4-methoxyphenyl) thiourea] | 34.3 ± 2.8 | Mixed | 25.6 ± 0.9 | > 30 | – | –
S=C(Nc1cccc(Cl)c1)Nc1cccnc1Cl [Compound 26, 1-(3-Chlorophenyl)-3-(2-chloropyridin-3-yl)thiourea] | > 500 | – | – | – | – | –
S=C(Nc1ccccc1)Nc1ccncc1 [Compound 30, 1-Phenyl-3-(pyridin-4-yl) thiourea] | > 500 | – | – | – | – | –
Cc1cccnc1NC(=S)Nc1ccccc1 [Compound 31, 1-(3-Methylpyridin-2-yl)-3-phenylthiourea] | > 500 | – | – | – | – | –
Cc1cccc(NC(=S)Nc2cccc(Cl)c2)c1 [Compound 10, 1-(3-Chlorophenyl)-3-m-tolylthiourea] | 48.5 ± 1.7 | Mixed | 31.6 ± 1.8 | > 30 | – | –
S=C(NCc1ccncc1)Nc1ccccc1 [Compound 35, 1-Phenyl-3-(pyridin-4-ylmethyl)thiourea] | > 500 | – | – | – | – | –
Cc1ccc(NC(=S)Nc2cccc(Cl)c2)cc1 [Compound 9, 1-(3-Chlorophenyl)-3-p-tolylthiourea] | 46.2 ± 0.5 | Non- Competitive | 39.6 ± 1 | 2.3 ± 0.4 | showed growth inhibition | –
Cc1ccc(Cl)cc1NC(=S)Nc1cccc(Cl)c1 [Compound 7, 1-(5-Chloro-2-methylphenyl)-3-(3-chlorophenyl) thiourea] | 40.4 ± 1.2 | Competitive | 25.8 ± 0.9 | 24.6 ± 0.2 | showed growth inhibition | –

SMILES | IC50 (α-Chymotrypsin [1]) [µM] | Type of inhibition (α-Chymotrypsin [2]) | Ki (α-Chymotrypsin [2]) [µM] | GI50 at 72 h [3] [µM] | growth inhibition for 3T3 cell lines (in words) (3T3 cell line) | α-chymotrypsin inhibition (in words) (α-Chymotrypsin [1])
S=C(Nc1cccc(Cl)c1)Nc1ccc(Cl)c(Cl)c1 [Compound 2, 1-(3-Chlorophenyl)-3-(3,4-dichlorophenyl) thiourea] | 18.8 ± 0.2 | non-competitive-type | 15.5 ± 0.4 | > 30 | – | –
S=C(Nc1cccnc1)Nc1cccc(Cl)c1 [Compound 19, 1-(3-Chlorophenyl)-3-(pyridin-3-yl) thiourea] | 199 | Competitive | 166 ± 5.9 | > 30 | – | –
S=C(Nc1cccc(Cl)c1)Nc1cccc(Cl)c1Cl [Compound 13, 1-(3-chlorophenyl)-3-(2,3-dichlorophenyl) thiourea] | 107 ± 9.1 | Competitive | 87.3 ± 6.7 | > 30 | – | –
Fc1ccc(NC(=S)Nc2cccc(Cl)c2)cc1 [Compound 12, 1-(3-Chlorophenyl)-3-(4-fluorophenyl) thiourea] | 68.4 ± 8.5 | Competitive | 62.5 ± 2.5 | > 30 | – | –
Cc1ccc(NC(=S)Nc2ccccc2)nc1C [Compound 32, 1-(5,6-Dimethylpyridin-2-yl)-3-phenylthiourea] | > 500 | – | – | – | – | –
S=C(NCc1ccncc1)Nc1cccc(Cl)c1 [Compound 18, 1-(3-Chlorophenyl)-3-(pyridin-4-ylmethyl)thiourea] | 186 ± 12.8 | Competitive | 148 ± 4.8 | > 30 | – | –
S=C(Nc1ccccc1)Nc1ccc(Br)cc1 [Compound 20, 1-(4-Bromophenyl)-3-phenylthiourea] | 45.7 ± 2.9 | competitive-type | 21.1 ± 2.5 | > 30 | – | –
Cc1cccc(C)c1NC(=S)Nc1cccc(Cl)c1 [Compound 24, 1-(3-Chlorophenyl)-3-(2,6-dimethylphenyl) thiourea] | > 500 | – | – | – | – | –
S=C(NCc1cccnc1)Nc1ccccc1 [Compound 34, 1-Phenyl-3-(pyridin-3-ylmethyl)thiourea] | > 500 | – | – | – | – | –
S=C(Nc1ccccc1)Nc1ccccn1 [Compound 28, 1-Phenyl-3-(pyridin-2-yl) thiourea] | > 500 | – | – | – | – | –
S=C(Nc1cccc(Cl)c1)Nc1ccccc1Cl [Compound 23, 1-(2-Chlorophenyl)-3-(3-chlorophenyl) thiourea] | > 500 | – | – | – | – | failed to show any inhibition
COc1ccc(OC)c(NC(=S)Nc2ccccc2)c1 [Compound 27, 1-(2,5-Dimethoxyphenyl)-3-phenylthiourea] | > 500 | – | – | – | – | –
Fc1ccc(NC(=S)Nc2cccc(Cl)c2)cc1F [Compound 11, 1-(3-Chlorophenyl)-3-(3,4-difluorophenyl) thiourea] | 66.9 ± 4.9 | Competitive | 49.8 ± 2.6 | > 30 | – | –
S=C(Nc1ccccc1)Nc1cccc(Br)c1 [Compound 21, 1-(3-Bromophenyl)-3-phenylthiourea] | 79.2 ± 0.6 | Mixed | 60.8 ± 7.4 | > 30 | – | –
S=C(Nc1cccc(Cl)c1)Nc1cccc(Cl)c1 [Compound 3, 1,3-Bis(3-chlorophenyl) thiourea] | 23.3 | Mixed | 15.9 ± 1.5 | > 30 | – | –
S=C(Nc1ccccc1)Nc1cccnc1Cl [Compound 33, 1-(2-Chloropyridin-3-yl)-3-phenylthiourea] | > 500 | – | – | – | – | –
Cc1ccc(C)c(NC(=S)Nc2cccc(Cl)c2)c1 [Compound 14, 1-(3-Chlorophenyl)-3-(2,5-dimethylphenyl) thiourea] | 151 ± 8.8 | Competitive | 107 ± 5.5 | > 30 | – | –
